Like-named read-outs stand apart in the source and are kept apart here.
Molecular target: T1, human FXR (Homo sapiens, UniProt Q96RI1)
T1 sequence (Q96RI1 262-486 limits assumed): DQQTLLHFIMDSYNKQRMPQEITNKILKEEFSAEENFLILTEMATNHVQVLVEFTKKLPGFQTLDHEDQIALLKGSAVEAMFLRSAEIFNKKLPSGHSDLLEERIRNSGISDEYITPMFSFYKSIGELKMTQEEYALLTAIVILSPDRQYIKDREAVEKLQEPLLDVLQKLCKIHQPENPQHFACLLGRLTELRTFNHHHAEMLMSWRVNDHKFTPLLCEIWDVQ
Test: transient human FXR/Gal4-luciferase reporter assay (HLE GAL-FXR)
Details: HEK293 cells

[1] = FXR EC50 (nM), Gal4-hFXR fusion reporter, Table 1
[2] = HLE GAL-FXR EC50, Gal4-hFXR fusion reporter
[3] = read-out: FXR EC50, Gal4-hFXR fusion reporter, Table 1

Protocol: A Gal4-hFXR fusion construct reporter system was used as the primary assay to characterize compound activity. A construct including 5 copies of the Gal4 promoter response element upstream of a firefly luciferase reporter cDNA was stably expressed in HEK293 cells. This reporter cell line was maintained in Dulbecco's Modified Eagle's medium (DMEM; Gibco) supplemented with 1% penicillin-streptomycin (P/S) solution, 500 μg/mL Zeocin and 10% charcoal/dextran-treated fetal bovine serum (cs-FBS) at 37° C. in a humidified 5% CO2 atmosphere. Another plasmid was constructed in which the human cytomegalovirus promoter in the pcDNA3.1 vector directs the expression of the cDNA encoding a fusion protein comprised of the DNA binding domain from the Gal4 transcription factor fused to the ligand binding domain from human FXR.
For compound testing, 100 nL of the compounds (serial dilutions in DMSO) are dispensed with an Echo acoustic dispenser (Labcyte) into the wells of a Corning/Costar clear bottom 384-well white plate. The transfected cells are harvested, counted, and diluted such that 10-25,000 cells in 25 μL are plated into each well of the 384-well compound assay plate. The compound-treated cells are incubated overnight at 37° C. in a humidified 5% CO2 atmosphere. The next morning 25 μL of Steady-Glo (Promega) are added to each well of the plate, the mixture is incubated for 15 min. with shaking, and luminescence is measured on an Envision (Perkin Elmer) plate reader.

| Structure (SMILES) | EC50 [1] [nM] | other results |
| --- | --- | --- |
| O=C(O)c1cc(OC2COC2)c2cc(N3CC4C(/C=C/c5c(-c6cccnc6C(F)(F)F)noc5C5CC5)C4C3)ccc2n1 (stereo not drawn) [Example 143] | 88 | – |
| O=C(O)c1ccc(N2CCC(/C=C/c3c(-c4c(Cl)cccc4Cl)noc3C3CC3)CC2)nc1 [Example 1, (E)-6-(4-(2-(5-Cyclopropyl-3-(2,6-dichlorophenyl)isoxazol-4-yl)vinyl)piperidin-1-yl)nicotinic acid] | – | EC50 [2]: 14 nM |
| COc1cc(C(=O)O)cc(-c2nc(N3CC4C(/C=C/c5c(-c6c(Cl)cncc6Cl)noc5C5CC5)C4C3)no2)c1 (stereo not drawn) [Example 165] | – | EC50 [3]: 222 nM |
| O=C(O)c1cc(O[C@H]2C[C@@H](F)C2)c2cc(N3CC4C(/C=C/c5c(-c6c(Cl)cncc6Cl)noc5C5CC5)C4C3)ccc2n1 (stereo partly drawn) [Example 203] | 16 | – |
| O=C(O)c1cc(OCC(F)F)c2cc(N3CC4C(/C=C/c5c(-c6c(Cl)cncc6Cl)noc5C5CC5)C4C3)ccc2n1 (stereo not drawn) [Example 200] | 21 | – |
| O=C(O)c1ccc2cc(N3CC4C(/C=C/c5c(-c6c(Cl)cccc6Cl)noc5C5CC5)C4C3)ccc2n1 (stereo not drawn) [Example 9, (E)-6-(6-(2-(5-cyclopropyl-3-(2,6-dichlorophenyl)isoxazol-4-yl)vinyl)-3-azabicyclo[3.1.0]hexan-3-yl)quinoline-2-carboxylic acid] | – | EC50 [2]: 39 nM |
| O=C(O)c1ccc(N2CCC(/C=C/c3c(-c4c(Cl)cccc4Cl)noc3C3CC3)CC2)nn1 [Example 18] | 447 | – |
| Cc1cc(C(=O)O)nc2ccc(N3CC4C(/C=C/c5c(-c6c(Cl)cncc6Cl)noc5C5CC5)C4C3)cc12 (stereo not drawn) [Example 111] | – | EC50 [3]: 38 nM |
| O=C(O)c1cnc2cc(N3CC4C(/C=C/c5c(-c6ccccc6C(F)(F)F)noc5C5CC5)C4C3)ccc2n1 (stereo not drawn) [Example 140] | 142 | – |
| O=C(O)c1ccc(N2CC3C(/C=C/c4c(-c5c(Cl)cncc5Cl)noc4C4CC4)C3C2)c2ncccc12 (stereo not drawn) [Example 121] | 824 | – |
| COc1cc(C(=O)O)cc(-c2cnc(N3CC4C(/C=C/c5c(-c6c(Cl)cncc6Cl)noc5C5CC5)C4C3)s2)c1 (stereo not drawn) [Example 216, (E)-3-(2-(6-(2-(5-cyclopropyl-3-(3,5-dichloropyridin-4-yl)isoxazol-4-yl)vinyl)-3-azabicyclo[3.1.0]hexan-3-yl)thiazol-5-yl)-5-methoxybenzoic acid] | – | EC50 [2]: 202 nM |
| COc1cc(C(=O)O)cc(-c2nsc(N3CC4C(/C=C/c5c(-c6c(Cl)cncc6Cl)noc5C5CC5)C4C3)n2)c1 (stereo not drawn) [Example 214, (E)-3-(5-(6-(2-(5-Cyclopropyl-3-(3,5-dichloropyridin-4-yl)isoxazol-4-yl)vinyl)-3-azabicyclo[3.1.0]hexan-3-yl)-1,2,4-thiadiazol-3-yl)-5-methoxybenzoic acid] | – | EC50 [2]: 107 nM |
| Clc1cccc(Cl)c1-c1noc(C2CC2)c1/C=C/C1CCN(c2ccc(-c3nn[nH]n3)cn2)CC1 [Example 64] | 30 | – |
| O=C(O)c1ccc2cc(N3CC4C(/C=C/c5c(-c6c(Cl)cncc6Cl)noc5C5CC5)C4C3)ccc2n1 (stereo not drawn) [Example 82] | 267 | – |
| O=C(O)Cc1ccnc(N2CCC(/C=C/c3c(-c4c(Cl)cccc4Cl)noc3C3CC3)CC2)c1 [Example 40] | 947 | – |
| O=C(O)c1cc(C(F)(F)F)c2cc(N3CC4C(/C=C/c5c(-c6c(Cl)cccc6Cl)noc5C5CC5)C4C3)ccc2n1 (stereo not drawn) [Example 52] | 77 | – |
| COc1cc(C(=O)O)nc2ccc(N3CCC(/C=C/c4c(-c5ccccc5C(F)(F)F)noc4C4CC4)CC3)cc12 [Example 100] | 4 | – |

| Structure (SMILES) | EC50 [1] [nM] | other results |
| --- | --- | --- |
| COc1cc(C(=O)O)nc2ccc(N3CCC(/C=C/c4c(-c5c(Cl)cncc5Cl)noc4C4CC4)CC3)cc12 [Example 88] | 5 | – |
| O=C(O)c1ccc(N2CCC(/C=C/c3c(C4CC4)nnn3-c3c(Cl)cccc3Cl)CC2)nc1 [Example 16] | 109 | – |
| COc1cc(C(=O)O)cc2sc(N3CC4C(/C=C/c5c(-c6c(Cl)cncc6Cl)noc5C5CC5)C4C3)nc12 (stereo not drawn) [Example 114] | 131 | – |
| O=C(O)c1ccnc(N2CCC(/C=C/c3c(-c4c(Cl)cccc4Cl)noc3C3CC3)CC2)c1 [Example 36] | 144 | – |
| Cn1cc(C(=O)O)c2ncc(N3CC4C(/C=C/c5c(-c6ccccc6C(F)(F)F)noc5C5CC5)C4C3)cc21 (stereo not drawn) [Example 211] | 154 | – |
| COc1cc(-c2nc(N3CC4C(/C=C/c5c(-c6c(Cl)cncc6Cl)noc5C5CC5)C4C3)no2)cc(C(=O)O)n1 (stereo not drawn) [Example 164] | 297 | – |
| COc1ccc(COc2cc(C(=O)O)nc3ccc(N4CC5C(/C=C/c6c(-c7c(Cl)cncc7Cl)noc6C6CC6)C5C4)cc23)cc1 (stereo not drawn) [Example 129] | 240 | – |
| Cc1cc(C(=O)O)nc2sc(N3CCC(/C=C/c4c(-c5c(Cl)cncc5Cl)noc4C4CC4)CC3)nc12 [Example 112] | 155 | – |
| Cn1cc(C(=O)O)c2ccc(N3CCC(/C=C/c4c(-c5c(Cl)cccc5Cl)noc4C4CC4)CC3)cc21 [Example 2, (E)-6-(4-(2-(5-Cyclopropyl-3-(2,6-dichlorophenyl)isoxazol-4-yl)vinyl)piperidin-1-yl)-1-methyl-1H-indole-3-carboxylic acid] | – | EC50 [2]: 5 nM |
| O=C(O)c1nc(C(F)(F)F)n2cc(N3CCC(/C=C/c4c(-c5c(Cl)cccc5Cl)noc4C4CC4)CC3)ccc12 [Example 39] | 5 | – |
| COc1cc(C(=O)O)nc2ccc(N3CC4C(/C=C/c5c(-c6cccnc6C(F)(F)F)noc5C5CC5)C4C3)cc12 (stereo not drawn) [Example 141] | 98 | – |
| O=C(O)c1ccc(N2CCC(/C=C/c3c(C4CC4)cnn3-c3c(Cl)cccc3Cl)CC2)nc1 [Example 11, (E)-6-(4-(2-(4-Cyclopropyl-1-(2,6-dichlorophenyl)-1H-pyrazol-5-yl)vinyl)piperidin-1-yl)nicotinic acid] | – | EC50 [2]: 148 nM |
| O=C(O)c1cc(-c2ccc(N3CC(/C=C/c4c(-c5ccccc5C(F)(F)F)noc4C4CC4)C3)nc2)cc(C(F)(F)F)c1 [Example 225] | 6 | – |
| O=C(O)c1cc(OC2CCC2)c2cc(N3CC(/C=C/c4c(-c5c(Cl)ccnc5Cl)noc4C4CC4)C3)ccc2n1 [Example 159] | 39 | – |
| C/C(=C\c1c(-c2c(Cl)cccc2Cl)noc1C1CC1)C1CCN(c2nc3c(F)cc(C(=O)O)cc3s2)CC1 [Example 4, (E)-2-(4-(1-(5-Cyclopropyl-3-(2,6-dichlorophenyl)isoxazol-4-yl)prop-1-en-2-yl)piperidin-1-yl)-4-fluorobenzo[d]thiazole-6-carboxylic acid] | – | EC50 [2]: 2060 nM |
| NC(=O)c1ccc(N2CC3C(/C=C/c4c(-c5c(Cl)cccc5Cl)noc4C4CC4)C3C2)cc1 (stereo not drawn) [Example 70, (E)-4-(6-(2-(5-Cyclopropyl-3-(2,6-dichlorophenyl)isoxazol-4-yl)vinyl)-3-azabicyclo[3.1.0]hexan-3-yl)benzamide] | – | EC50 [2]: 377 nM |
| O=C(O)c1cnc(N2CCC(/C=C/c3c(-c4c(Cl)cccc4Cl)noc3C3CC3)CC2)nc1 [Example 25] | 83 | – |

Further lines, with some results ahead:

| EC50 [1] [nM] | Structure (SMILES) | other results |
| --- | --- | --- |
| 330 | O=C(O)c1nccc2cc(N3CCC(/C=C/c4c(-c5ccccc5OC(F)(F)F)noc4C4CC4)CC3)ccc12 [Example 106] | – |
| 189 | O=C(O)c1cc2ccc(N3CCC(/C=C/c4c(-c5cccnc5C(F)(F)F)noc4C4CC4)CC3)cc2cn1 [Example 103] | – |
| 25 | Cn1c(C(=O)O)cc2ccc(N3CCC(/C=C/c4c(-c5c(Cl)cccc5Cl)noc4C4CC4)CC3)cc21 [Example 35] | – |
| 194 | Cn1cc(C(=O)O)c2cnc(N3CCC(/C=C/c4c(-c5c(Cl)cccc5Cl)noc4C4CC4)CC3)nc21 [Example 19] | – |
| 25 | CC(C)Oc1cc(C(=O)O)nc2ccc(N3CC4C(/C=C/c5c(-c6c(Cl)cncc6Cl)noc5C5CC5)C4C3)cc12 (stereo not drawn) [Example 109] | – |
| 189 | Clc1cccc(Cl)c1-c1noc(C2CC2)c1/C=C/C1C2CN(c3ccc4nc(-c5nnn[nH]5)ccc4c3)CC12 (stereo not drawn) [Example 65] | – |
| 5 | CC(C)Oc1cc(C(=O)O)nc2ccc(N3CCC(/C=C/c4c(-c5ccncc5C(F)(F)F)noc4C4CC4)CC3)cc12 [Example 110] | – |
| 3 | O=C(O)c1cc(OC(F)F)c2cc(N3CCC(/C=C/c4c(-c5ccccc5C(F)(F)F)noc4C4CC4)CC3)ccc2n1 [Example 99] | – |
| 56 | COc1cc(C(=O)O)cc(-c2ccc(N3CC(/C=C/c4c(-c5ccccc5C(F)(F)F)noc4C4CC4)C3)cn2)c1 [Example 221] | – |
| 650 | O=C(O)c1cc(O[C@H]2CCOC2)c2cc(N3CC(/C=C/c4c(-c5cccnc5C(F)(F)F)noc4C4CC4)C3)ccc2n1 [Example 189] | – |
| 784 | COc1cc(C(=O)O)cc(-c2nc(N3CC4C(/C=C/c5c(-c6cccnc6C(F)(F)F)noc5C5CC5)C4C3)no2)c1 (stereo not drawn) [Example 155] | – |
| 14 | O=C(O)c1cc(F)cc(-c2ccc(N3CC(/C=C/c4c(-c5ccccc5C(F)(F)F)noc4C4CC4)C3)nc2)c1 [Example 226] | – |
| 31 | O=C(O)c1cnc2cc(N3CCC(/C=C/c4c(-c5c(Cl)cccc5Cl)noc4C4CC4)CC3)ccc2c1 [Example 69] | – |
| 126 | COc1nc(C(=O)O)cc2ccc(N3CC4C(/C=C/c5c(-c6c(Cl)cncc6Cl)noc5C5CC5)C4C3)cc12 (stereo not drawn) [Example 122] | – |
| 156 | O=C(O)c1ccc2oc(N3CCC(/C=C/c4c(-c5c(Cl)cccc5Cl)noc4C4CC4)CC3)nc2c1 [Example 23] | – |
| 23 | O=C(O)c1ccc(N2CCC(/C=C/c3c(-c4c(Cl)cccc4Cl)noc3C3CC3)CC2)cc1Cl [Example 53] | – |
| 500 | Cn1c(N2CCC(/C=C/c3c(-c4c(Cl)cccc4Cl)noc3C3CC3)CC2)nc2cc(C(=O)O)ccc21 [Example 28] | – |
| 494 | O=C(O)c1cccc(-c2nc(N3CC4C(/C=C/c5c(-c6c(Cl)cncc6Cl)noc5C5CC5)C4C3)no2)c1 (stereo not drawn) [Example 117] | – |
| 30 | [2H]C([2H])([2H])Oc1cc(C(=O)O)nc2ccc(N3CC4C(/C=C/c5c(-c6c(Cl)cncc6Cl)noc5C5CC5)C4C3)cc12 (stereo not drawn) [Example 202] | – |
| 21 | Cn1cc(C(=O)O)c2ccc(N3CCC(/C=C/c4c(-c5c(Cl)cccc5Cl)noc4C4CC4)CC3)nc21 [Example 20] | – |

From patent US11168079B2, “Alkene compounds as farnesoid x receptor modulators” (BRISTOL-MYERS SQUIBB COMPANY, priority 2017, dated 2021)
